Reference: patent publication US20100173990A1, “Transglutaminase Inhibitor Comprising Chlorogenic Acid And A Method For Producing Thereof” (priority 2007, published 2010)

Molecular target: T1, Transglutaminase 2 (Cavia cutleri, UniProt P08587)
T1 construct: purchased Sigma-Aldrich T5398
T1 sequence (P08587 1-690): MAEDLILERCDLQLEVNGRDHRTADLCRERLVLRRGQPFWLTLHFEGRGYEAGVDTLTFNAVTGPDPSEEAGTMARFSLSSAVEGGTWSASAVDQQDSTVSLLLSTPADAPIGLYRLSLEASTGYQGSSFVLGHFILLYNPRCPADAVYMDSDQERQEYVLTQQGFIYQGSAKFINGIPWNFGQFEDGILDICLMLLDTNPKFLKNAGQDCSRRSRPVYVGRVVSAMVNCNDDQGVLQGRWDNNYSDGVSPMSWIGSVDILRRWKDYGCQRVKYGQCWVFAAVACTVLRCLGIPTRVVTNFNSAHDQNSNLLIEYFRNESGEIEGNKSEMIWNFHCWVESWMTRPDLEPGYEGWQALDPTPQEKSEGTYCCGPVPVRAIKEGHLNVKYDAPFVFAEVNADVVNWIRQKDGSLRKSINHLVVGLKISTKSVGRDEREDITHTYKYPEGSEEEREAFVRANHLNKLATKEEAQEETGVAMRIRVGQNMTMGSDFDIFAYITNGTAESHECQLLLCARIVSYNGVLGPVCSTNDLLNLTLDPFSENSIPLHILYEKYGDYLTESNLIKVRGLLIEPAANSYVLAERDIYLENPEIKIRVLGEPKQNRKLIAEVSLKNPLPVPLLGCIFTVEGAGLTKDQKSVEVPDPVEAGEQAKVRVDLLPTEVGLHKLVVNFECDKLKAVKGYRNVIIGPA
Assay: In vitro assay for inhibition of transglutaminase activity ([1,4-14C] putrescine incorporation into succinylated casein)
Assay type: biochemical
Details: for activity of transglutaminase relative to DMSO-control, Assay 1 / activity of transglutaminase relative to DMSO-control, Assay 2 / activity of transglutaminase relative to DMSO-control, Assay 3 / activity of transglutaminase relative to DMSO-control, Mean: control = 1.0000; for activity of transglutaminase relative to DMSO-control, Mean: mean of three assays
Method: To measure the inhibitory activity of chlorogenic acid which competes with putrescine, the transglutaminase-catalyzed reaction between [1,4,-^14C] putrescine and succinylated casein were observed.
Succinylated casein was purchased from Calbiochem (Cat. No. 573464), and 1 g of the powder was dissolved in 50 ml of a reaction buffer solution containing 5 mM DTT (0.1 M Tris-acetate (pH 8.0), 10 mM CaCl, 0.15 M NaCl, 1.0 mM EDTA). This solution was stored in a deep freezer for further use. [1,4-^14C] Putrescine dihydrochloride was purchased from GE Healthcare (Cat. No. CFA301), and the stock solution was diluted with distilled water to yield a radiological dose of 5 μCi/ml. Transglutaminase 2 was purchased from Sigma-Aldrich (Cat. No. T5398), and diluted with distilled water to yield a final concentration of 1 unit/ml. Chlorogenic acid (Sigma-Aldrich, Cat No. C3878) was dissolved in DMSO at a concentration of 10 mM to prepare its stock solution, and the stock solution was diluted with DMSO to prepare solutions having various concentrations.
450 μl of succinylated casein solution and 50 μl of [1,4-^14C] putrescine dihydrochloride solution were mixed together to prepare a substrate solution. 96 μl of the reaction buffer, 3 μl of the stock solution of chlorogenic acid, and 1 μl of the stock solution of transglutaminase were mixed together to prepare each sample, followed by incubation at 37° C. for 10 min. 500 μl of the substrate solution and 100 μl of sample solution were mixed well, and the mixture was incubated at 37° C. for 2 hrs, before termination with 4.5 ml of cold (4° C.) 7.5% TCA. The final solution was stored at 4° C. for 1 hr. The TCA-precipitates were filtered through a GF/glass fiber filter, washed with 25 ml of cold 5% TCA, and dried. Radioactivity of crosslinked protein was measured using a β-counter (Beckman Coulter), and compensated by the activity of DMSO-control group as a standard. The activity of transglutaminase was represented by the measured values.

O=C(/C=C/c1ccc(O)c(O)c1)O[C@@H]1C[C@](O)(C(=O)O)C[C@@H](O)[C@H]1O [chlorogenic acid, 3-[[3-(3,4-dihydroxyphenyl)-1-oxo-2-propenyl]oxy]-1,4,5-trihydroxycyclohexanecarboxylic acid]
activity of transglutaminase relative to DMSO-control, Assay 1 (0.5 μM chlorogenic acid): 0.9450 | activity of transglutaminase relative to DMSO-control, Assay 2 (0.5 μM chlorogenic acid): 0.8658 | activity of transglutaminase relative to DMSO-control, Assay 3 (0.5 μM chlorogenic acid): 0.9028 | activity of transglutaminase relative to DMSO-control, Mean (0.5 μM chlorogenic acid): 0.9045 | activity of transglutaminase relative to DMSO-control, Assay 1 (1.0 μM chlorogenic acid): 0.8294 | activity of transglutaminase relative to DMSO-control, Assay 2 (1.0 μM chlorogenic acid): 0.7454 | activity of transglutaminase relative to DMSO-control, Assay 3 (1.0 μM chlorogenic acid): 0.5411 | activity of transglutaminase relative to DMSO-control, Mean (1.0 μM chlorogenic acid): 0.7053 | activity of transglutaminase relative to DMSO-control, Assay 1 (2.0 μM chlorogenic acid): 0.4526 | activity of transglutaminase relative to DMSO-control, Assay 2 (2.0 μM chlorogenic acid): 0.5111 | activity of transglutaminase relative to DMSO-control, Assay 3 (2.0 μM chlorogenic acid): 0.3081 | activity of transglutaminase relative to DMSO-control, Mean (2.0 μM chlorogenic acid): 0.4240 | activity of transglutaminase relative to DMSO-control, Assay 1 (3.0 μM chlorogenic acid): 0.2041 | activity of transglutaminase relative to DMSO-control, Assay 2 (3.0 μM chlorogenic acid): 0.1523 | activity of transglutaminase relative to DMSO-control, Assay 3 (3.0 μM chlorogenic acid): 0.1209 | activity of transglutaminase relative to DMSO-control, Mean (3.0 μM chlorogenic acid): 0.1591 | activity of transglutaminase relative to DMSO-control, Assay 1 (5.0 μM chlorogenic acid): 0.1094 | activity of transglutaminase relative to DMSO-control, Assay 2 (5.0 μM chlorogenic acid): 0.1009 | activity of transglutaminase relative to DMSO-control, Assay 3 (5.0 μM chlorogenic acid): 0.0797 | activity of transglutaminase relative to DMSO-control, Mean (5.0 μM chlorogenic acid): 0.0966 | activity of transglutaminase relative to DMSO-control, Assay 1 (10.0 μM chlorogenic acid): 0.0713 | activity of transglutaminase relative to DMSO-control, Assay 2 (10.0 μM chlorogenic acid): 0.0876 | activity of transglutaminase relative to DMSO-control, Assay 3 (10.0 μM chlorogenic acid): 0.0754 | activity of transglutaminase relative to DMSO-control, Mean (10.0 μM chlorogenic acid): 0.0781 | activity of transglutaminase relative to DMSO-control, Assay 1 (50.0 μM chlorogenic acid): 0.0711 | activity of transglutaminase relative to DMSO-control, Assay 2 (50.0 μM chlorogenic acid): 0.0808 | activity of transglutaminase relative to DMSO-control, Assay 3 (50.0 μM chlorogenic acid): 0.0703 | activity of transglutaminase relative to DMSO-control, Mean (50.0 μM chlorogenic acid): 0.0741 | IC50 (calculated by nonlinear regression from mean values): 1490 nM | inhibition of the activity of transglutaminase (FIG. 1) (relative inhibition activities versus concentration): inhibited in a chlorogenic acid concentration-dependent manner
